Test results reported in the Kinase Knowledgebase extract (Sharma et al. 2016).
Several values for one entry are separate records, joined by “and”; a condition that tells them apart may be missing. Equal values may be shown once.

Biological target: MAPK14 (human) (UniProt Q16539)
Assay: Inhibition of MAPK14 Kinase Activity
Settings: THP.1 monocytic

Chain of MAPK14 (human) (Q16539 whole entry, looked up): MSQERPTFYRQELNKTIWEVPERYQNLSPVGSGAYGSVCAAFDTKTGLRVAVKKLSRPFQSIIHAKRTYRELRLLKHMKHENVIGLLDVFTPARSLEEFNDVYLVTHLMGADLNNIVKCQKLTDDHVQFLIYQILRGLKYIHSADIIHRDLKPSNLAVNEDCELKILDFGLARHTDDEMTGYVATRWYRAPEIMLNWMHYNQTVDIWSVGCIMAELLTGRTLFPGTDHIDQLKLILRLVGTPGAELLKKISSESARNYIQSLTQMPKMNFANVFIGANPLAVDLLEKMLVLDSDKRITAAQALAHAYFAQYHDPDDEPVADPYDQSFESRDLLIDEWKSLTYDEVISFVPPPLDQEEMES

Structure (SMILES): Cc1c(I)c(NCc2ccccc2)c(Br)c(=O)n1-c1c(F)cccc1F
- IC50: 1000 to 25000 nM

Structure (SMILES): Cc1cc(OCc2ccc(F)cc2F)c(Br)c(=O)n1-c1cc(CO)ccc1F
- IC50: 1000 to 25000 nM

Structure (SMILES): O=c1c(Br)c(OCc2ccc(F)cc2F)cc(CN2CCOCC2)n1-c1c(F)cccc1F
- IC50: < 1000 nM

Structure (SMILES): COC(=O)NCc1cccc(-n2c(C)cc(OCc3ccc(F)cc3F)c(Br)c2=O)c1
- IC50: 1000 to 25000 nM

Structure (SMILES): Cc1cc(OCc2ccc(F)cc2F)c(Br)c(=O)n1-c1c(F)cc(F)cc1F
- IC50: < 1000 nM

Structure (SMILES): Cc1cc(NCc2ccc(F)cc2F)c(Cl)c(=O)n1Cc1cccc(C#N)c1
- IC50: < 1000 nM

Structure (SMILES): Cc1cc(OCc2ccc(F)cc2F)c(Cl)c(=O)n1-c1cccc(CO)c1
- IC50: 1000 to 25000 nM

Structure (SMILES): COCCN(C)C(=O)c1ccc(Cn2c(C)cc(OCc3ccc(F)cc3F)c(Br)c2=O)cc1
- IC50: < 1000 nM

Structure (SMILES): O=c1c(Br)c(NCc2ccc(Cl)cc2F)ccn1Cc1cccc(F)c1
- IC50: 1000 to 25000 nM

Structure (SMILES): O=c1c(C(F)(F)F)c(OCc2ccccc2)ccn1Cc1cccc(F)c1
- IC50: 25000 to 100000 nM

Structure (SMILES): Cc1cnc(Cn2c(C)cc(OCc3ccc(F)cc3F)c(Cl)c2=O)cn1
- IC50: < 1000 nM

Structure (SMILES): CN(C)Cc1cc(OCc2ccc(F)cc2F)c(Br)c(=O)n1-c1c(F)cccc1F
- IC50: < 1000 nM

Structure (SMILES): Cc1cc(OCc2ccc(F)cc2F)c(Br)c(=O)n1-c1cccc(C(=O)NCCO)c1
- IC50: < 1000 nM

Structure (SMILES): Cc1ccc(Cn2ccc(OCc3ccccc3)cc2=O)cc1
- IC50: 25000 to 100000 nM

Structure (SMILES): Cc1cc(OCc2ccc(F)cc2F)c(Br)c(=O)n1-c1cccc(C(N)=O)c1
- IC50: < 1000 nM

Structure (SMILES): Cc1cc(OCc2ccc(F)cc2F)c(Br)c(=O)n1Cc1ccc(C(=O)NCCCN)cc1
- IC50: < 1000 nM

Structure (SMILES): Cc1cc(OCc2ccccc2)cc(=O)n1Cc1ccccc1
- IC50: 25000 to 100000 nM

Structure (SMILES): Cc1cc(OCc2ccc(F)cc2F)c(Br)c(=O)n1-c1cc(CO)ccc1Cl
- IC50: < 1000 nM

Structure (SMILES): NCc1ccccc1Cn1ccc(OCc2ccccc2)c(Br)c1=O
- IC50: 1000 to 25000 nM

Structure (SMILES): O=c1cc(OCc2c(Cl)cccc2Cl)ccn1Cc1ccccc1
- IC50: > 100000 nM

Structure (SMILES): CC(C)(C)c1ccc(Cn2ccc(OCc3ccc(F)cc3F)c(Br)c2=O)cc1
- IC50: 1000 to 25000 nM

Structure (SMILES): Cc1c(Br)c(OCc2ccccc2)c(Br)c(=O)n1Cc1ccccc1
- IC50: 25000 to 100000 nM

Structure (SMILES): COC(=O)c1ccc(Cn2ccc(OCc3ccccc3)c(Br)c2=O)cc1
- IC50: < 1000 nM

Structure (SMILES): Cc1cc(OCc2ccc(F)cc2F)c(Br)c(=O)n1-c1cccc(C(=O)NCCN(C)C)c1
- IC50: < 1000 nM

Structure (SMILES): Cc1cc(OCc2ccc(F)cc2F)c(Cl)c(=O)n1-c1cc(CO)ccc1Cl
- IC50: < 1000 nM

Structure (SMILES): O=c1c(Br)c(OCc2ccccc2C(F)(F)F)ccn1Cc1ccccc1
- IC50: 25000 to 100000 nM

Structure (SMILES): C=Cc1c(OCc2ccccc2)ccn(Cc2ccccc2)c1=O
- IC50: 25000 to 100000 nM

Structure (SMILES): O=c1c(Br)c(O)ccn1Cc1ccc(O)cc1
- IC50: > 100000 nM

Structure (SMILES): Cc1cc(OCc2ccc(F)cc2F)c(Br)c(=O)n1CC1CC1
- IC50: < 1000 nM

Structure (SMILES): CNCc1cnc(Cn2c(C)cc(OCc3ccc(F)cc3F)c(Br)c2=O)cn1
- IC50: 1000 to 25000 nM

Structure (SMILES): C#Cc1c(OCc2ccccc2)ccn(Cc2cccc(F)c2)c1=O
- IC50: 1000 to 25000 nM

Structure (SMILES): C=CCNc1c(I)c(C)n(-c2c(F)cccc2F)c(=O)c1Br
- IC50: 1000 to 25000 nM

Structure (SMILES): Cc1cc(OCc2ccc(F)cc2F)c(Br)c(=O)n1Cc1cnc(CN(C)C)cn1
- IC50: 1000 to 25000 nM

Structure (SMILES): CCOC(=O)c1cnc(Cn2c(C)cc(OCc3ccc(F)cc3F)c(Cl)c2=O)cn1
- IC50: < 1000 nM

Structure (SMILES): O=c1c(Br)c(CCc2ccccc2)ccn1Cc1ccccc1
- IC50: 1000 to 25000 nM

Structure (SMILES): O=c1c(Br)c(OCc2ccccc2)ccn1Cc1ccc(Br)cc1
- IC50: < 1000 nM

Structure (SMILES): C=CCNc1cc(C)n(-c2c(F)cccc2F)c(=O)c1Br
- IC50: 1000 to 25000 nM

Structure (SMILES): Cc1cc(OCc2ccc(F)cc2F)c(Br)c(=O)n1Cc1ccc(C(=O)N(CCO)CCO)cc1
- IC50: < 1000 nM

Structure (SMILES): COC(=O)NCc1cccc(Cn2c(C)cc(OCc3ccc(F)cc3F)c(Br)c2=O)c1
- IC50: < 1000 nM

Structure (SMILES): CNC(=O)NCc1cccc(-n2c(C)cc(OCc3ccc(F)cc3F)c(Br)c2=O)c1
- IC50: 1000 to 25000 nM

Structure (SMILES): O=c1c(Br)c(OCc2ccccc2Cl)ccn1Cc1ccccc1
- IC50: 1000 to 25000 nM

Structure (SMILES): CCOC(=O)CCn1ccc(OCc2ccccc2)c(Br)c1=O
- IC50: 1000 to 25000 nM

Structure (SMILES): Cc1cc(OCc2ccc(F)cc2F)c(Br)c(=O)n1-c1ccc(C(C)(C)O)cn1
- IC50: > 100000 nM

Structure (SMILES): CCOC(=O)CNc1nc(C)ncc1Cn1c(C)cc(OCc2ccc(F)cc2F)c(Br)c1=O
- IC50: 1000 to 25000 nM

Structure (SMILES): Cc1ccc(CO)cc1-n1c(C)cc(OCc2ccc(F)cc2F)c(Br)c1=O
- IC50: < 1000 nM

Structure (SMILES): CC(=O)OCC(=O)NCc1cccc(-n2c(C)cc(OCc3ccc(F)cc3F)c(Br)c2=O)c1
- IC50: 1000 to 25000 nM

Structure (SMILES): Cc1cc(OCc2ccc(F)cc2F)c(Br)c(=O)n1Cc1ccccc1C(N)=O
- IC50: 1000 to 25000 nM

Structure (SMILES): Cc1cc(OCc2ccc(F)cc2F)c(Br)c(=O)n1-c1cccc(C(=O)N(C)CCO)c1
- IC50: 1000 to 25000 nM

Structure (SMILES): O=c1[nH]ccc(OCc2ccccc2)c1Br
- IC50: > 100000 nM

Structure (SMILES): Cc1cc(OCc2ccc(F)cc2F)c(Br)c(=O)n1-c1ccc(C(=O)NCCN)cc1
- IC50: < 1000 nM

Structure (SMILES): Cc1cc(OCc2ccc(F)cc2F)c(Cl)c(=O)n1-c1cc(CN)ccc1F
- IC50: < 1000 nM

Structure (SMILES): COCCNCc1cc(OCc2ccc(F)cc2F)c(Br)c(=O)n1-c1c(F)cccc1F
- IC50: < 1000 nM

Structure (SMILES): O=c1c(Br)c(OCc2ccccc2)ccn1CC1CCNCC1
- IC50: 25000 to 100000 nM

Structure (SMILES): Cc1ccc(CN(C)C)cc1-n1c(C)cc(OCc2ccc(F)cc2F)c(Br)c1=O
- IC50: 1000 to 25000 nM

Structure (SMILES): Cc1cc(OCc2ccc(F)cc2F)c(Br)c(=O)n1-c1ccc(CNC(=O)CO)cc1
- IC50: < 1000 nM

Structure (SMILES): Cc1cc(OCc2ccc(F)cc2F)c(Br)c(=O)n1-c1cccc(CNS(C)(=O)=O)c1
- IC50: 1000 to 25000 nM

Structure (SMILES): O=C(Nc1ccn(Cc2cccc(F)c2)c(=O)c1Br)c1ccc(F)cc1
- IC50: 1000 to 25000 nM

Structure (SMILES): Cc1cc(OCc2ccc(F)cc2F)c(Br)c(=O)n1Cc1cnc(C(=O)N(C)C)cn1
- IC50: < 1000 nM

Structure (SMILES): O=c1cc(OCc2ccccc2)ccn1Cc1ccc(OC(F)(F)F)cc1
- IC50: 25000 to 100000 nM

Structure (SMILES): Cc1c(CO)c(OCc2ccc(F)cc2F)c(Br)c(=O)n1-c1c(F)cccc1F
- IC50: 1000 to 25000 nM

Structure (SMILES): Cc1cc(OCc2ccc(F)cc2F)c(Br)c(=O)n1Cc1cccc(CN2CCOCC2)c1
- IC50: < 1000 nM

Structure (SMILES): O=c1c(Br)c(OCc2ccccc2)ccn1CC1CCCNC1 (configuration not stated)
- IC50: > 100000 nM

Structure (SMILES): COc1cccc(COc2ccn(Cc3cccc(F)c3)c(=O)c2Br)c1
- IC50: 1000 to 25000 nM

Structure (SMILES): NC(=O)c1ccccc1Cn1ccc(OCc2ccccc2)c(Br)c1=O
- IC50: 1000 to 25000 nM

Structure (SMILES): Cc1cc(OCc2ccc(F)cc2F)c(Br)c(=O)n1Cc1ccc(CN2CCOCC2)cc1
- IC50: < 1000 nM

Structure (SMILES): Cc1cc(OCc2ccc(F)cc2F)c(Br)c(=O)n1-c1ccc(C(=O)NCCCN)cc1
- IC50: < 1000 nM

Structure (SMILES): CNC(=O)c1ccc(-n2c(C)cc(OCc3ccc(F)cc3F)c(Br)c2=O)cc1
- IC50: > 100000 nM

Structure (SMILES): CNC(=O)c1ccc(OC)c(-n2c(C)cc(OCc3ccc(F)cc3F)c(Br)c2=O)c1
- IC50: < 1000 nM

Structure (SMILES): Cc1cc(OCc2ccc(F)cc2F)c(Br)c(=O)n1Cc1cccc(CN2CCCCC2)c1
- IC50: < 1000 nM

Structure (SMILES): Cc1cc(OCc2ccc(F)cc2F)c(Br)c(=O)n1-c1ccccc1C(F)(F)F
- IC50: < 1000 nM

Structure (SMILES): Cc1cc(OCc2ccc(F)cc2F)c(Br)c(=O)n1Cc1ccc(C(=O)NO)cc1
- IC50: < 1000 nM and 1000 to 25000 nM

Structure (SMILES): Cc1cc(OCc2ccc(F)cc2F)c(Cl)c(=O)n1-c1cccc(C(N)=O)c1
- IC50: < 1000 nM

Structure (SMILES): Cc1cnc(Cn2c(C)cc(OCc3ccc(F)cc3F)c(Br)c2=O)cn1
- IC50: < 1000 nM

Structure (SMILES): Cc1cc(OCc2ccc(F)cc2F)c(Br)c(=O)n1Cc1ccc(C(=O)N(C)CCO)cc1
- IC50: < 1000 nM

Structure (SMILES): Cc1c(C=NO)c(OCc2ccc(F)cc2F)c(Br)c(=O)n1-c1c(F)cccc1F
- IC50: 25000 to 100000 nM

Structure (SMILES): Cc1cc(OCc2ccc(F)cc2F)c(Br)c(=O)n1-c1cccc(CNC(=O)CO)c1
- IC50: 1000 to 25000 nM

Structure (SMILES): Cc1cc(OCc2ccc(F)cc2F)c(Br)c(=O)n1Cc1cnc(C(C)(C)O)cn1
- IC50: 1000 to 25000 nM
